Results from ChEMBL document CHEMBL1130299, “Time-dependent inhibition of neuronal nitric oxide synthase by N-propargylguanidine” (Bioorg Med Chem Lett, 1997).

System: Nitric oxide synthase 1 (Bos taurus)
Assay: Inactivation constant for Neuronal nitric oxide synthase (nNOS) from bovine brain

K inact: 0.39 min⁻¹
SMILES: C#CCNC(=N)N
